In test [1] the test system is Human cervical cancer cells (HeLa S3). Briefly: Cell growth inhibitory effect, WST-8 method. In kind it is cell-based. Conditions: Homo sapiens, 72 h; HeLa S3, three days incubation; read-out: Cell growth inhibitory effect (HeLaS3) (IC50). In general terms: Formazan colour is commonly taken as a measure of viable cells.
Test [2] has the same test system. Put plainly: Effect by combined use of drugs in cells (docetaxel), WST-8 method. Type of test: cell-based. The following applies: HeLa S3, three days; for inhibition at 0.3 µM: compound 0.3 μM alone; for inhibition at 0.1 µM: compound 0.1 μM alone.
Test [3] concerns the target T1, GST-tagged human Aurora B(AurB)/His-tagged human INCENP complex proteins (Homo sapiens, UniProt Q96GD4).
T1 construct: GST; purchased Carna Biosciences, Inc
Briefly: Aurora B inhibitory activity (Method A, IMAP assay kit). Type of test: biochemical. The following applies: 40 μM ATP, 25° C., 45 minutes.

The next test deals with T2, human Aurora A (Homo sapiens, UniProt O14965).
T2 construct: His (N); made in house; host or cells: Escherichia coli BL21-CodonPlus(DE3)-RIL
T2 sequence (O14965 1-403): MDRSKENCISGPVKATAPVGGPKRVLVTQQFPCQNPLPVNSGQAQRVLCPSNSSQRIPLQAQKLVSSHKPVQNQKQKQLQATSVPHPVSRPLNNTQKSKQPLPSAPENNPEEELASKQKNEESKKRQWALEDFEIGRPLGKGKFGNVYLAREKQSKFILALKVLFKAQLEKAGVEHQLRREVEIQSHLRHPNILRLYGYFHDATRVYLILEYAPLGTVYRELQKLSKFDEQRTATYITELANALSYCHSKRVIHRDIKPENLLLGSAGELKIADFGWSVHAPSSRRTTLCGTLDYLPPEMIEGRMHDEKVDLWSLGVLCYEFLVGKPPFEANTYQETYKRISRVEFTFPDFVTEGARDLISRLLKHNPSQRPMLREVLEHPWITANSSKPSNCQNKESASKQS
Briefly: Aurora A inhibitory activity (IMAP fluorescence polarization phosphorylation assay). Type of test: biochemical. Conditions: 20 μM ATP, 30° C., 120 minutes. (In fluorescence polarisation assays a small probe gives low polarisation when free and higher when bound to something large.)

Where [4] appears, read: Homo sapiens, HeLa S3, 72 h, read-out: Cell growth inhibitory effect by sole administration of the compound of Example (%).
Where [5] appears, read: compound 0.3 μM + docetaxel 0.3 nM.
Where [6] appears, read: compound 0.1 μM + docetaxel 0.3 nM.

In general, IC50 refers to the concentration that gives 50% inhibition.

Structures can show the parent of a compound that is named as a salt.

T1 sequence (Q96GD4 whole entry): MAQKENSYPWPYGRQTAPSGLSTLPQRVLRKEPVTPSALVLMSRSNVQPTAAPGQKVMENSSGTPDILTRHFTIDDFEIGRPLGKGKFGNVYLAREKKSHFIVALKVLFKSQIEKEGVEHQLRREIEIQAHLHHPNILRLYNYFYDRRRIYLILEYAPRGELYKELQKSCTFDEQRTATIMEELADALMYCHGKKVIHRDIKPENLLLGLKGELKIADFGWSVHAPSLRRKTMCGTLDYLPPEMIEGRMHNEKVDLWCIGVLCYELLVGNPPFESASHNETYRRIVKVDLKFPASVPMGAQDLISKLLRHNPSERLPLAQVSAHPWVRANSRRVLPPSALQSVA
T1 sequence (Q9NQS7 803-916 partner limits assumed): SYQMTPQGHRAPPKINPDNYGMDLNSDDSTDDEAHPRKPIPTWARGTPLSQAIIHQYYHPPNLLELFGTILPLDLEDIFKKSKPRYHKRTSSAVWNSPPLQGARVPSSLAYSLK

Take `Cn1nc([C@]2(Cc3cccc(Nc4cc[nH]n4)n3)CC[C@@H](Oc3cccc(Cl)c3F)CC2)oc1=O` [Example 26, 5-(trans-4-(3-chloro-2-fluorophenoxy)-1-((6-(1H-pyrazol-3-ylamino)pyridin-2-yl)methyl)cyclohexyl)-3-methyl-1,3,4-oxadiazol-2(3H)-one]: the values for the IC50 (in test [1]; in test [3]; against human Aurora A) were 3300 nM, 800 nM and 1.4 nM, respectively. In test [2] (setting [4]), the inhibition at 0.3 µM turned out to be 11.8%. Further, in test [2] (Homo sapiens, HeLa S3, 72 h, compound 1.0 μM alone, read-out: Cell growth inhibitory effect by sole administration of the compound of Example (%)), the inhibition at 1 µM was found to be 18.2%. In addition, the “Cell growth inhibitory effect by combined administration of docetaxel and the compound of Example (%)” value (“Cell growth inhibitory effect … (%)” for short) in test [2] (setting [5]) was 67.3%; in test [2] (compound 1.0 μM + docetaxel 0.3 nM) it was 88.5%.

`O=c1[nH]nc([C@]2(Cc3cccc(Nc4cc[nH]n4)n3)CC[C@@H](Oc3cccc(Cl)c3F)CC2)o1` [Example 23, 5-(trans-4-(3-chloro-2-fluorophenoxy)-1-((6-(1H-pyrazol-3-ylamino)pyridin-2-yl)methyl)cyclohexyl)-1,3,4-oxadiazol-2(3H)-one]: the results for the IC50 (in test [1]; in test [3]; at human Aurora A) were 760 nM, 490 nM and 0.39 nM, respectively. Moreover, the inhibition at 0.1 µM in test [2] (setting [4]) worked out at 3.7%. Besides, the inhibition at 0.3 µM in test [2] (setting [4]) stood at 36%. In addition, the figures for the “Cell growth inhibitory effect … (%)” value in test [2] (setting [6]) and in test [2] (setting [5]) were 71.5% and 87.4%, respectively.

As for `O=C(O)[C@]1(Cc2cccc(Nc3nccs3)n2)CC[C@@H](S(=O)(=O)c2cccc(Cl)c2Cl)CC1` [Example 32, trans-4-((2,3-dichlorophenyl)sulfonyl)-1-((6-(1,3-thiazol-2-ylamino)pyridin-2-yl)methyl)cyclohexanecarboxylic acid trifluoroacetate], the IC50 is 590 nM in test [1], 70 nM in test [3] and 0.15 nM on human Aurora A. Besides, the inhibition at 0.1 µM in test [2] (setting [4]) worked out at 6.3%. The inhibition at 0.3 µM in test [2] (setting [4]) came to 40.8%. The “Cell growth inhibitory effect … (%)” value in test [2] (setting [6]) was 88.6%; in test [2] (setting [5]), 94.0%.

For the origin of these results see patent US20100016335A1, “NOVEL AMINOPYRIDINE DERIVATIVES HAVING AURORA A SELECTIVE INHIBITORY ACTION” (priority 2006, published 2010).
